In US9597310B2, “Indanyloxydihydrobenzofuranylacetic acids” (Boehringer Ingelheim International GmbH, priority 2012, dated 2017) one finds EC50 data, which are given here for 27 compounds.

The structures appear in SMILES notation.

Sequence of human GPR40 receptor (O14842 whole entry): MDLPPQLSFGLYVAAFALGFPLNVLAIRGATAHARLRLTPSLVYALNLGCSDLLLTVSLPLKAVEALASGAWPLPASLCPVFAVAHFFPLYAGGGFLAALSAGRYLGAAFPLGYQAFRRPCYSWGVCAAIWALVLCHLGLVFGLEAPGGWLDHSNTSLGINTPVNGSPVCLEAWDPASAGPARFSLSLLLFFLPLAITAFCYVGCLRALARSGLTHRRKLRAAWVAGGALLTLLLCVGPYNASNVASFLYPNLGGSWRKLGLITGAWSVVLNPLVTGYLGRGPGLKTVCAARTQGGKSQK

This assay has as its target human GPR40 receptor (Homo sapiens (Human), UniProt O14842). As to the kind of experiment: IP1 accumulation measurements using the IPOne assay system. The class given is cell-based. The conditions noted are these: 1321N1 cells stably expressing human GPR40 receptor, 1 h stimulation. The procedure:
IP1 accumulation measurements using the IPOne assay system—1321N1 cells stably expressing human GPR40 receptor (Euroscreen, Belgium) are seeded 24 h before the assay in white 384-well plates in culture medium containing 10% FCS, 1% Na-Pyruvate and 400 μg/mL G418. IP1 is assayed according to the manufacturer's description (Cisbio Bioassays, France). In brief, the assay is started by substitution of the culture medium by stimulation buffer (Hepes 10 mM, CaCl2 1 mM, MgCl2 0.5 mM, KCl 4.2 mM, NaCl 146 mM, glucose 5.5 mM and LiCl 50 mM, pH 7.4). Cells are stimulated for 1 h at 37° C., 5% CO2 by addition of the compounds that are diluted in stimulation buffer containing LiCl. Assays are stopped by adding HTRF-conjugates (IP1-d2 and Anti-IP1 cryptate Tb) and lysis buffer, provided by the manufacturer. After an incubation time of 1 h at room temperature plates are measured using an EnVision™, Perkin Elmer. The obtained fluorescence ratios at 665/615 […] are then used to calculate the pEC50 values using Assay Explorer 3.3 Software (Accelrys, Inc.) by interpolation using an IP1 reference curve and subsequent sigmoidal curve fitting allowing for a variable hill slope.
For `CN(C)C(=O)c1ccc(Oc2ccc(F)c3c2CC[C@H]3Oc2ccc3c(c2)OC[C@H]3CC(=O)O)cc1` [Example 63, ((S)-6-{(R)-4-[4-(Dimethylcarbamoyl)phenoxy]-7-fluoro-indan-1-yloxy}-2,3-dihydrobenzofuran-3-yl)-acetic acid], the EC50 stood at 0.022 µM.

In the case of `CC(C)(O)CCCc1ccc(Oc2ccc(F)c3c2CC[C@H]3Oc2ccc3c(c2)OC[C@H]3CC(=O)O)c(C#N)c1` [Example 56, ((S)-6-{(R)-4-[2-Cyano-4-(4-hydroxy-4-methylpentyl)phenoxy]-7-fluoro-indan-1-yloxy}-2,3-dihydrobenzofuran-3-yl)-acetic acid], the concentration for a half-maximal effect (EC50) was 0.038 µM. For `O=C(O)C[C@@H]1COc2cc(O[C@@H]3CCc4c(Oc5ccc(O[C@H]6CCOC6)cn5)ccc(F)c43)ccc21` [Example 18, {(S)-6-[(R)-7-Fluoro-4-{5-[(S)-tetrahydro-furan-3-yloxy}-pyridin-2-yloxy}-indan-1-yloxy]-2,3-dihydro-benzofuran-3-yl}-acetic acid] the value was 0.031 µM. Under `CC(C)(O)CCOc1ccc(Oc2ccc(F)c3c2CC[C@H]3Oc2ccc3c(c2)OC[C@H]3CC(=O)O)cc1C#N` [Example 44, ((S)-6-{(R)-4-[3-Cyano-4-(3-hydroxy-3-methylbutoxy)phenoxy]-7-fluoro-indan-1-yloxy}-2,3-dihydrobenzofuran-3-yl)-acetic acid] stands 0.007 µM. The compound `N#CCCc1ccc(Oc2ccc(F)c3c2CC[C@H]3Oc2ccc3c(c2)OC[C@H]3CC(=O)O)cc1` [Example 61, ((S)-6-{(R)-4-[4-(2-Cyanoethyl)phenoxy]-7-fluoro-indan-1-yloxy}-2,3-dihydrobenzofuran-3-yl)-acetic acid] showed an EC50 of 0.013 µM.

Take `Cn1nnc(-c2ccc(Oc3ccc(F)c4c3CC[C@H]4Oc3ccc4c(c3)OC[C@H]4CC(=O)O)cc2)n1` [Example 15, [(S)-6-{(R)-7-Fluoro-4-[4-(2-methyl-2H-tetrazol-5-yl)-phenoxy]-indan-1-yloxy}-2,3-dihydro-benzofuran-3-yl]-acetic acid]: the midpoint of the response, the EC50, lay at 0.003 µM. In the case of `Cc1noc(C)c1-c1ccc(Oc2ccc(F)c3c2CC[C@H]3Oc2ccc3c(c2)OC[C@H]3CC(=O)O)c(C#N)c1` [Example 49, ((S)-6-{(R)-4-[2-Cyano-4-(3,5-dimethylisoxazol-4-yl)phenoxy]-7-fluoro-indan-1-yloxy}-2,3-dihydrobenzofuran-3-yl)-acetic acid], the response was half-maximal at 0.017 µM (EC50). Under `O=C(O)C[C@@H]1COc2cc(O[C@@H]3CCc4c(Oc5ccc(-n6ccnc6)cc5)ccc(F)c43)ccc21` [Example 10, {(S)-6-[(R)-7-Fluoro-4-(4-imidazol-1-yl-phenoxy)-indan-1-yloxy]-2,3-dihydro-benzofuran-3-yl}-acetic acid] stands 0.011 µM; under `Cn1nccc1-c1ccc(Oc2ccc(F)c3c2CC[C@H]3Oc2ccc3c(c2)OC[C@H]3CC(=O)O)c(C#N)c1` [Example 48, ((S)-6-{(R)-4-[2-Cyano-4-(1-methyl-1H-pyrazol-5-yl)phenoxy]-7-fluoro-indan-1-yloxy)-2,3-dihydrobenzofuran-3-yl}-acetic acid], 0.009 µM.

For `CC(C)(O)COc1cc(Oc2ccc(F)c3c2CC[C@H]3Oc2ccc3c(c2)OC[C@H]3CC(=O)O)ccc1C#N` [Example 52, ((S)-6-{(R)-4-[4-Cyano-3-(2-hydroxy-2-methylproproxy)phenoxy]-7-fluoro-indan-1-yloxy}-2,3-dihydrobenzofuran-3-yl)-acetic acid], the 50% effective concentration (EC50) was found to be 0.031 µM. As for `O=C(O)C[C@@H]1COc2cc(O[C@@H]3CCc4c(Oc5ccc(CN6CCOCC6)cc5)ccc(F)c43)ccc21` [Example 5, {(S)-6-[(R)-7-Fluoro-4-(4-morpholin-4-ylmethyl-phenoxy)-indan-1-yloxy]-2,3-dihydro-benzofuran-3-yl}-acetic acid], the concentration for a half-maximal effect (EC50) stood at 0.025 µM. As for `O=C(O)C[C@@H]1COc2cc(O[C@@H]3CCc4c(Oc5cc(OC6CCOCC6)ccc5F)ccc(F)c43)ccc21` [Example 46, ((S)-6-{(R)-7-Fluoro-4-[2-fluoro-5-(tetrahydro-2H-pyran-4-yloxy)phenoxy]-indan-1-yloxy}-2,3-dihydrobenzofuran-3-yl)-acetic acid], the concentration giving a half-maximal response (EC50) is 0.062 µM. Under `Cc1cc(OCCC(C)(C)O)cc(C)c1Oc1ccc(F)c2c1CC[C@H]2Oc1ccc2c(c1)OC[C@H]2CC(=O)O` [Example 40, ((S)-6-{(R)-7-Fluoro-4-[4-(3-hydroxy-3-methylbutoxy)-2,6-dimethylphenoxy]-indan-1-yloxy}-2,3-dihydrobenzofuran-3-yl)-acetic acid] stands 0.733 µM; under `N#Cc1ccc(Oc2ccc(F)c3c2CC[C@H]3Oc2ccc3c(c2)OC[C@H]3CC(=O)O)cc1OC1CCOCC1` [Example 51, ((S)-6-{(R)-4-[4-Cyano-3-(tetrahydro-2H-pyran-4-yloxy)phenoxy]-7-fluoro-indan-1-yloxy}-2,3-dihydrobenzofuran-3-yl)-acetic acid], 0.029 µM; under `O=C(O)C[C@@H]1COc2cc(O[C@@H]3CCc4c(Oc5ccc(OCC6(O)CCOCC6)c(F)c5)ccc(F)c43)ccc21` [Example 37, [(S)-6-((R)-7-Fluoro-4-{3-fluoro-4-[(4-hydroxytetrahydro-2H-pyran-4-yl)-methoxy]phenoxy}-indan-1-yloxy)-2,3-dihydrobenzofuran-3-yl]-acetic acid], 0.008 µM. For `CC(=O)Nc1ccc(Oc2ccc(F)c3c2CC[C@H]3Oc2ccc3c(c2)OC[C@H]3CC(=O)O)cc1` [Example 8, {(S)-6-[(R)-4-(4-Acetylamino-phenoxy)-7-fluoro-indan-1-yloxy]-2,3-dihydro-benzofuran-3-yl}-acetic acid], the midpoint of the response, the EC50, lay at 0.034 µM. The compound `CC(C)(O)Cn1cc(-c2cc(F)c(Oc3ccc(F)c4c3CC[C@H]4Oc3ccc4c(c3)OC[C@H]4CC(=O)O)c(F)c2)cn1` [Example 31, [(S)-6-((R)-4-{2,6-Difluoro-4-[1-(2-hydroxy-2-methylpropyl)-1H-pyrazol-4-yl]phenoxy}-7-fluoro-indan-1-yloxy)-2,3-dihydrobenzofuran-3-yl]-acetic acid] showed an EC50 of 0.058 µM.

Consider `CC(C)(O)CCCc1ccc(Oc2ccc(F)c3c2CC[C@H]3Oc2ccc3c(c2)OC[C@H]3CC(=O)O)cc1` [Example 28, ((S)-6-{(R)-7-Fluoro-4-[4-(4-hydroxy-4-methylpentyl)phenoxy]-indan-1-yloxy}-2,3-dihydrobenzofuran-3-yl)-acetic acid], for which the response was half-maximal at 0.02 µM (EC50). In the case of `CC(C)(O)CCn1ncc2ccc(Oc3ccc(F)c4c3CC[C@H]4Oc3ccc4c(c3)OC[C@H]4CC(=O)O)cc21` [Example 36, ((S)-6-{(R)-7-Fluoro-4-[1-(3-hydroxy-3-methylbutyl)-1H-indazol-6-yloxy]-indan-1-yloxy}-2,3-dihydrobenzofuran-3-yl)-acetic acid], it took 0.008 µM to reach a half-maximal effect (EC50). Turning to `Cn1nnnc1-c1ccc(Oc2ccc(F)c3c2CC[C@H]3Oc2ccc3c(c2)OC[C@H]3CC(=O)O)cc1` [Example 14, [(S)-6-{(R)-7-Fluoro-4-[4-(1-methyl-1H-tetrazol-5-yl)-phenoxy]-indan-1-yloxy}-2,3-dihydro-benzofuran-3-yl]-acetic acid], the EC50 came out at 0.023 µM. For `Cc1noc(C)c1-c1ccc(Oc2ccc(F)c3c2CC[C@H]3Oc2ccc3c(c2)OC[C@H]3CC(=O)O)c(F)c1` [Example 54, ((S)-6-{(R)-4-[4-(3,5-Dimethylisoxazol-4-yl)-2-fluorophenoxy]-7-fluoro-indan-1-yloxy}-2,3-dihydrobenzofuran-3-yl)-acetic acid] the value was 0.009 µM; for `O=C(O)C[C@@H]1COc2cc(O[C@@H]3CCc4c(Oc5ccc(OC6CCOCC6)cc5F)ccc(F)c43)ccc21` [Example 50, ((S)-6-{(R)-7-Fluoro-4-[2-fluoro-4-(tetrahydro-2H-pyran-4-yloxy)phenoxy]-indan-1-yloxy}-2,3-dihydrobenzofuran-3-yl)-acetic acid], 0.004 µM; for `Cn1ccnc1-c1ccc(Oc2ccc(F)c3c2CC[C@H]3Oc2ccc3c(c2)OC[C@H]3CC(=O)O)cc1` [Example 38, ((S)-6-{(R)-7-Fluoro-4-[4-(1-methyl-1H-imidazol-2-yl)phenoxy]-indan-1-yloxy}-2,3-dihydrobenzofuran-3-yl)-acetic acid], 0.041 µM.

Turning to `O=C(O)C[C@@H]1COc2cc(O[C@@H]3CCc4c(Oc5ccc6c(c5)OCO6)ccc(F)c43)ccc21` [Example 25, {(S)-6-[(R)-4-(Benzo[d][1,3]dioxol-5-yloxy)-7-fluoro-indan-1-yloxy]-2,3-dihydrobenzofuran-3-yl}-acetic acid], the EC50 amounted to 0.006 µM.

On to `CC(=O)NCc1cccc(Oc2ccc(F)c3c2CC[C@H]3Oc2ccc3c(c2)OC[C@H]3CC(=O)O)c1` [Example 7, [(S)-6-{(R)-4-[3-(Acetylamino-methyl)-phenoxy]-7-fluoro-indan-1-yloxy}-2,3-dihydro-benzofuran-3-yl]-acetic acid], for which a half-maximal effect (EC50) was put at 0.055 µM. For `O=C(O)C[C@@H]1COc2cc(O[C@@H]3CCc4c(Oc5ccc(-c6nnn[nH]6)cc5)ccc(F)c43)ccc21` [Example 13, [(S)-6-{(R)-7-Fluoro-4-[4-(1H-tetrazol-5-yl)-phenoxy]-indan-1-yloxy}-2,3-dihydro-benzofuran-3-yl]-acetic acid], the EC50 came to 0.282 µM. Under `CS(=O)(=O)CCCOc1ccc(Oc2ccc(F)c3c2CC[C@H]3Oc2ccc3c(c2)OC[C@H]3CC(=O)O)cc1` [Example 4, [(S)-6-{(R)-7-Fluoro-4-[4-(3-methanesulfonyl-propoxy)-phenoxy]-indan-1-yloxy}-2,3-dihydro-benzofuran-3-yl)-acetic acid] stands 0.015 µM.
